Experimental data as given in patent US9663473B2 (Actelion Pharmaceuticals Ltd, priority 2013, dated 2017).
pEC50: −log10 of the molar value.

target: T1, recombinant human ALX receptor (Homo sapiens, UniProt P25090); assay: Intracellular calcium measurements (FLIPR), ALX receptor agonistic activity; type: cell-based; conditions: HEK293-hALXR-Gα16 cells, Fluo-4 calcium signal, normalized to WKYMVm 10 nM
T1 construct: expressed in transfected cells; host or cells: HEK293 (HEK293-hALXR-Gα16)
T1 sequence (P25090 1-351): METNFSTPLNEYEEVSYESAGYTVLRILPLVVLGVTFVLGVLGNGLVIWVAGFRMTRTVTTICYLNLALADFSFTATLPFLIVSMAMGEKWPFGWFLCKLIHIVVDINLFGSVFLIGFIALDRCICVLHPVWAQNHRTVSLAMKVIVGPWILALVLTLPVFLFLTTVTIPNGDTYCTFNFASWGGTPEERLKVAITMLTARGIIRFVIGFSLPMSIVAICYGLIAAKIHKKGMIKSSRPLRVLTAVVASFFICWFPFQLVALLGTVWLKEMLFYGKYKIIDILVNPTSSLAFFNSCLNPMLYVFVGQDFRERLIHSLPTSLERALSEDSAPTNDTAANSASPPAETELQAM
Procedure, shortened: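 Agonist-induced calcium flux was read by FLIPR (488/540 nm) as baseline-subtracted peak emission, expressed relative to WKYMVm at 10 nM final. Cells used: HEK293-hALXR-Gα16, dye-loaded 60 min at 37° C. with 1 μM Fluo-4 AM before compound dose-response addition.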

SMILES	pEC50
COc1ccc(CC(NC(=O)Nc2ccccc2)c2nc3ccccc3[nH]2)cc1 (centres unmarked) [Example 169, 1-(1-(1H-Benzo[d]imidazol-2-yl)-2-(4-methoxyphenyl)ethyl)-3-phenylurea]	7.29
COc1ccc(C[C@@H](NC(=O)N[C@@H](CO)Cc2ccccc2)c2nc3ccccc3[nH]2)cc1 [Example 205, 1-((R)-1-(1H-Benzo[d]imidazol-2-yl)-2-(4-methoxyphenyl)ethyl)-3-((R)-1-hydroxy-3-phenylpropan-2-yl)urea]	7.21
O=C(NC(Cc1ccc(Br)c(F)c1)c1nc2ccccc2[nH]1)NC12CCC(O)(CC1)CC2 (single isomer, unassigned; ent-1) [Example 258, 1-(1-(1H-Benzo[d]imidazol-2-yl)-2-(4-bromo-3-fluorophenyl)ethyl)-3-(4-hydroxybicyclo[2.2.2]octan-1-yl)urea (ent-1)]	7.40
COc1ccc(C[C@@H](NC(=O)N[C@@H]2CCC[C@H]2O)c2nc3ccccc3[nH]2)cc1 [Example 113, 1-((R)-1-(1H-Benzo[d]imidazol-2-yl)-2-(4-methoxyphenyl)ethyl)-3-((1R,2R)-2-hydroxycyclopentyl)urea]	7.70
COc1ccc(C[C@@H](NC(=O)NC2CCN(Cc3ccccc3)CC2)c2nc3ccccc3[nH]2)cc1 [Example 88, (R)-1-(1-(1H-Benzo[d]imidazol-2-yl)-2-(4-methoxyphenyl)ethyl)-3-(1-benzylpiperidin-4-yl)urea]	7.00
COc1cc(F)c(CC(NC(=O)N[C@H]2CC[C@H](O)CC2)c2nc3ccccc3[nH]2)cc1F (relative stereo) [Example 247, 1-(1-(1H-Benzo[d]imidazol-2-yl)-2-(2,5-difluoro-4-methoxyphenyl)ethyl)-3-(trans-4-hydroxycyclohexyl)urea]	8.00
COc1ccc(C[C@@H](NC(=O)NC2COCc3ccccc32)c2nc3ccccc3[nH]2)cc1 (stereo partly drawn) [Example 218, 1-((R)-1-(1H-Benzo[d]imidazol-2-yl)-2-(4-methoxyphenyl)ethyl)-3-(isochroman-4-yl)urea]	7.47
COc1ccc(C[C@@H](NC(=O)NCc2ccnn2-c2ccc(OC)cc2)c2nc3ccccc3[nH]2)cc1 [Example 294, (R)-1-(1-(1H-Benzo[d]imidazol-2-yl)-2-(4-methoxyphenyl)ethyl)-3-((1-(4-methoxyphenyl)-1H-pyrazol-5-yl)methyl)urea]	8.12
COc1ccc(C[C@@H](NC(=O)N[C@H]2CC[C@H](O)c3ccccc32)c2nc3ccccc3[nH]2)cc1 (relative stereo) [Example 134, 1-((R)-1-(1H-Benzo[d]imidazol-2-yl)-2-(4-methoxyphenyl)ethyl)-3-((1 S*,4S*)-4-hydroxy-1,2,3,4-tetrahydronaphthalen-1-yl)urea]	6.97
CCC[C@@H](NC(=O)N[C@H](Cc1ccc(OC)cc1)c1nc2ccccc2[nH]1)c1ccccc1 [Example 335, 1-((R)-1-(1H-Benzo[d]imidazol-2-yl)-2-(4-methoxyphenyl)ethyl)-3-((R)-1-phenylbutyl)urea]	6.43
COc1ccc(CC(NC(=O)N[C@H]2CC[C@](C)(O)CC2)c2nc3ccccc3[nH]2)cc1F (relative stereo) [Example 226, 1-(1-(1H-Benzo[d]imidazol-2-yl)-2-(3-fluoro-4-methoxyphenyl)ethyl)-3-(trans-4-hydroxy-4-methylcyclohexyl)urea]	8.18
COc1ccc(CC(NC(=O)Nc2ncc(C)s2)c2nc3ccccc3[nH]2)cc1 (centres unmarked) [Example 402, 1-(1-(1H-Benzo[d]imidazol-2-yl)-2-(4-methoxyphenyl)ethyl)-3-(5-methylthiazol-2-yl)urea]	6.11
COc1ccc(C[C@@H](NC(=O)NCCc2cccnc2)c2nc3ccccc3[nH]2)cc1 [Example 280, (R)-1-(1-(1H-Benzo[d]imidazol-2-yl)-2-(4-methoxyphenyl)ethyl)-3-(2-(pyridin-3-yl)ethyl)urea]	6.60
COc1ccc(C[C@@H](NC(=O)NC(C)c2ccc(OC(F)F)cc2)c2nc3ccccc3[nH]2)cc1 (stereo partly drawn) [Example 271, 1-((R)-1-(1H-Benzo[d]imidazol-2-yl)-2-(4-methoxyphenyl)ethyl)-3-(1-(4-(difluoromethoxy)phenyl)ethyl)urea]	6.92
COc1ccc(C[C@@H](NC(=O)NC(C)(C)c2cccc(C)c2)c2nc3ccccc3[nH]2)cc1 [Example 353, (R)-1-(1-(1H-Benzo[d]imidazol-2-yl)-2-(4-methoxyphenyl)ethyl)-3-(2-(m-tolyl)propan-2-yl)urea]	6.34
COc1ccc(C[C@@H](NC(=O)NCCc2cnccn2)c2nc3ccccc3[nH]2)cc1 [Example 285, (R)-1-(1-(1H-Benzo[d]imidazol-2-yl)-2-(4-methoxyphenyl)ethyl)-3-(2-(pyrazin-2-yl)ethyl)urea]	6.55

SMILES	pEC50
COc1ccc(C[C@@H](NC(=O)N[C@@H](C)c2ccc(C)cc2)c2nc3ccccc3[nH]2)cc1 [Example 333, 1-((R)-1-(1H-Benzo[d]imidazol-2-yl)-2-(4-methoxyphenyl)ethyl)-3-((S)-1-(p-tolyl)ethyl)urea]	6.98
COc1ccc(C[C@@H](NC(=O)NC2CCc3cccc(OC)c3C2)c2nc3ccccc3[nH]2)cc1 (stereo partly drawn) [Example 30, 1-((R)-1-(1H-Benzo[d]imidazol-2-yl)-2-(4-methoxyphenyl)ethyl)-3-(8-methoxy-1,2,3,4-tetrahydronaphthalen-2-yl)urea]	7.59
COc1ccc(C[C@@H](NC(=O)N2CC3CC2CN3)c2nc3ccccc3[nH]2)cc1 (stereo partly drawn) [Example 129, N—((R)-1-(1H-Benzo[d]imidazol-2-yl)-2-(4-methoxyphenyl)ethyl)-2,5-diazabicyclo[2.2.1]heptane-2-carboxamide]	6.55
COc1ccc(CC(NC(=O)NC23CCC(O)(CC2)CC3)c2nc3ccc(F)cc3[nH]2)c(F)c1 (single isomer, unassigned; ent-1) [Example 263, 1-(1-(6-Fluoro-1H-benzo[d]imidazol-2-yl)-2-(2-fluoro-4-methoxyphenyl)ethyl)-3-(4-hydroxybicyclo[2.2.2]octan-1-yl)urea (ent-1)]	8.85
COC(=O)c1ccc([C@H](C)NC(=O)N[C@H](Cc2ccc(OC)cc2)c2nc3ccccc3[nH]2)cc1 [Example 337, Methyl 4-((S)-1-(3-((R)-1-(1H-benzo[d]imidazol-2-yl)-2-(4-methoxyphenyl)ethyl)ureido)ethyl)benzoate]	6.42
COc1ccc(C[C@@H](NC(=O)N[C@H]2CCC[C@H]2O)c2nc3ccccc3[nH]2)cc1 [Example 114, 1-((R)-1-(1H-Benzo[d]imidazol-2-yl)-2-(4-methoxyphenyl)ethyl)-3-((1S,2R)-2-hydroxycyclopentyl)urea]	6.72
COc1ccc(CC(NC(=O)NCc2cccnc2OC)c2nc3ccccc3[nH]2)cc1 (centres unmarked) [Example 385, 1-(1-(1H-Benzo[d]imidazol-2-yl)-2-(4-methoxyphenyl)ethyl)-3-((2-methoxypyridin-3-yl)methyl)urea]	5.99
COc1ccc(CC(NC(=O)NCc2cccc(OC)c2)c2nc3ccccc3[nH]2)cc1 (centres unmarked) [Example 39, 1-(1-(1H-Benzo[d]imidazol-2-yl)-2-(4-methoxyphenyl)ethyl)-3-(3-methoxybenzyl)urea]	6.29
O=C(N[C@H](Cc1ccc(Cl)cc1)c1nc2ccccc2[nH]1)N[C@H]1CC[C@H](O)CC1 [Example 123, 1-((R)-1-(1H-Benzo[d]imidazol-2-yl)-2-(4-chlorophenyl)ethyl)-3-(trans-4-hydroxycyclohexyl)urea]	7.36
COc1ccc(CC(NC(=O)Nc2ccnn2-c2ccc(C(C)C)cc2)c2nc3ccccc3[nH]2)cc1 (centres unmarked) [Example 407, 1-(1-(1H-benzo[d]imidazol-2-yl)-2-(4-methoxyphenyl)ethyl)-3-(1-(4-isopropylphenyl)-1H-pyrazol-5-yl)urea]	6.81
COc1ccc(C[C@@H](NC(=O)N[C@H]2CCNC2)c2nc3ccccc3[nH]2)cc1 [Example 126, 1-((R)-1-(1H-Benzo[d]imidazol-2-yl)-2-(4-methoxyphenyl)ethyl)-3-((S)-pyrrolidin-3-yl)urea]	6.22
COCC(Cc1ccccc1)NC(=O)N[C@H](Cc1ccc(OC)cc1)c1nc2ccccc2[nH]1 (stereo partly drawn) [Example 70, 1-((R)-1-(1H-Benzo[d]imidazol-2-yl)-2-(4-methoxyphenyl)ethyl)-3-(1-methoxy-3-phenylpropan-2-yl)urea]	7.77
COc1ccc(C[C@@H](NC(=O)N[C@@H]2CCCC[C@@H]2O)c2nc3ccccc3[nH]2)cc1 (relative stereo) [Example 145, 1-((R)-1-(1H-Benzo[d]imidazol-2-yl)-2-(4-methoxyphenyl)ethyl)-3-((1R*,2S*)-2-hydroxycyclohexyl)urea]	7.21
COc1ccc(C[C@@H](NC(=O)N[C@@H]2CCNC2)c2nc3ccccc3[nH]2)cc1 [Example 125, 1-((R)-1-(1H-Benzo[d]imidazol-2-yl)-2-(4-methoxyphenyl)ethyl)-3-((R)-pyrrolidin-3-yl)urea]	7.09
COc1ccc(C[C@@H](NC(=O)NC2CCN(S(C)(=O)=O)C2)c2nc3ccccc3[nH]2)cc1 (stereo partly drawn) [Example 157, 1-((R)-1-(1H-Benzo[d]imidazol-2-yl)-2-(4-methoxyphenyl)ethyl)-3-(1-(methylsulfonyl)pyrrolidin-3-yl)urea]	6.73
COc1ccc(C[C@@H](NC(=O)NC2CCCCC2C)c2nc3ccccc3[nH]2)cc1 (stereo partly drawn) [Example 23, 1-((R)-1-(1H-Benzo[d]imidazol-2-yl)-2-(4-methoxyphenyl)ethyl)-3-(2-methylcyclohexyl)urea]	6.91
